These compounds were tested against T1, EBP (Homo sapiens, UniProt Q15125) (assay: EBP Functional Assay (EBP immunoaffinity LC-MS assay)). Details: not given.
T1 construct: HEK293T cells were utilized as the source of EBP enzyme; endogenous in cells; host or cells: HEK293T
T1 sequence (Q15125 whole entry): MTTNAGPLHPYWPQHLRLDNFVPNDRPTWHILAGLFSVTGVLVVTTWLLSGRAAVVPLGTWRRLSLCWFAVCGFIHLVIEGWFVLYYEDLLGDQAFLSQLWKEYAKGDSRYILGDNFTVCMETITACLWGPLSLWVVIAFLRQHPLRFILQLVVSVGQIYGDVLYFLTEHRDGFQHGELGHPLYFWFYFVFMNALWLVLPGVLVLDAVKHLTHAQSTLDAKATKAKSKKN
Type: biochemical
Experimental: The EBP immunoaffinity (IA) LC-MS assay measures the potency of small molecule inhibitors of EBP by quantifying their concentration-dependent changes in the enzyme's substrate and product using liquid chromatography atmospheric pressure chemical ionization multiple reaction monitoring mass spectrometry (LC-APCI MRM MS). HEK293T cells were utilized as the source of EBP enzyme. The enzyme was incubated with the small molecule inhibitors at variable concentrations for 30 min. Deuterated form of EBP substrate, zymosterol-d5 (Avanti Polar Lipids, Cat #700068P-1 mg), was then added and the plate was incubated at 37 °C for 4 h. Finally, the sterol isomers were extracted and injected to LC-APCI MRM MS. MRM transition used for the quantification for both zymosterol and dihydrolathosterol (substrate and product of EBP enzymatic reaction, respectively) is 372.3-203.2, CE 30 and DP 80 in positive ion mode. Percent conversion of the zymosterol-d5 to dehydrolathosterol-d5 was used to derive IC50 curves. Tasin-1 (1′-[(4-Methoxyphenyl)sulfonyl]-4-methyl-1,4′-bipiperidine, CAS 792927-06-1) was used as the reference small molecule inhibitor.
Percent conversion versus the compound concentration data were fit to the following 4-parameter logistic model to generate IC50 curves: […]
Work on `Cn1nc(C(F)(F)F)cc1S(=O)(=O)N1CC2(CC(N3CC4(CCO4)C3)C2)C1` [Example 15, 6-(2-((1-Methyl-3-(trifluoromethyl)-1H-pyrazol-5-yl)sulfonyl)-2-azaspiro[3.3]heptan-6-yl)-1-oxa-6-azaspiro[3.3]heptane] yielded an IC50 of 500 to 3000 nM. `Cc1nc(C(F)(F)F)ccc1S(=O)(=O)N1CC2(CCC(N3CCOCC3)C2)C1` (stereo not drawn) [Example 40, 4-(2-((2-Methyl-6-(trifluoromethyl)pyridin-3-yl)sulfonyl)-2-azaspiro[3.4]octan-6-yl)morpholine] was tested, and the IC50 was < 100 nM. With `CC(C)c1cc(S(=O)(=O)N2CC3(CC(N4CCOCC4)C3)C2)n(C)n1` [Example 19, 4-(2-((3-Isopropyl-1-methyl-1H-pyrazol-5-yl)sulfonyl)-2-azaspiro[3.3]heptan-6-yl)morpholine] the IC50 was < 100 nM. Compound `Cc1cc(S(=O)(=O)N2CC3(CC(N4CCC(C)CC4)CO3)C2)n(C)n1` (stereo not drawn) [Example 55, 2-((1,3-Dimethyl-1H-pyrazol-5-yl)sulfonyl)-7-(4-methylpiperidin-1-yl)-5-oxa-2-azaspiro[3.4]octane] has an IC50 of 100 to 500 nM. For `Cc1nc(C(F)(F)F)ccc1S(=O)(=O)N1CC2(CC(N3CC4(COC4)C3)C2)C1` [Example 4, 6-(2-((2-Methyl-6-(trifluoromethyl)pyridin-3-yl)sulfonyl)-2-azaspiro[3.3]heptan-6-yl)-2-oxa-6-azaspiro[3.3]heptane], the IC50 was 500 to 3000 nM. For `O=S(=O)(c1ccc(OC(F)F)cc1)N1CC2(CCC(N3CCOCC3)C2)C1` (stereo not drawn) [Example 44, 4-(2-((4-(Difluoromethoxy)phenyl)sulfonyl)-2-azaspiro[3.4]octan-6-yl)morpholine], the IC50 was 500 to 3000 nM. In the case of `Cc1nn(C)c(S(=O)(=O)N2CC3(CCC(N4CCOCC4)C3)C2)c1C(F)F` (stereo not drawn) [Example 38, 4-(2-((4-(Difluoromethyl)-1,3-dimethyl-1H-pyrazol-5-yl)sulfonyl)-2-azaspiro[3.4]octan-6-yl)morpholine], the IC50 is reported as 100 to 500 nM. For `Cc1nc(C(F)(F)F)ncc1S(=O)(=O)N1CC2(CC(N(C)C3CCOCC3)C2)C1` [Example 80, N-methyl-2-((4-methyl-2-(trifluoromethyl)pyrimidin-5-yl)sulfonyl)-N-(tetrahydro-2H-pyran-4-yl)-2-azaspiro[3.3]heptan-6-amine], the IC50 was < 100 nM.

Same assay, conditions: HEK293T cells as source of EBP enzyme; zymosterol-d5 substrate; inhibitor 30 min, then 37 °C for 4 h; percent conversion to dehydrolathosterol-d5 by LC-APCI MRM MS; read-out: EBP Functional Assay
`Cn1nc(C(F)(F)F)cc1S(=O)(=O)N1CC2(CC(N3CCOCC3)C2)C1` [Example 10, 4-(2-((1-Methyl-3-(trifluoromethyl)-1H-pyrazol-5-yl)sulfonyl)-2-azaspiro[3.3]heptan-6-yl)morpholine] gave an IC50 of 100 to 500 nM. With `Cc1nc(C(C)(F)F)ccc1S(=O)(=O)N1CC2(CC(N(C)C3CC4(COC4)C3)C2)C1` (stereo not drawn) [Example 74, 2-((6-(1,1-difluoroethyl)-2-methylpyridin-3-yl)sulfonyl)-N-methyl-N-(2-oxaspiro[3.3]heptan-6-yl)-2-azaspiro[3.3]heptan-6-amine] the IC50 was < 100 nM. `Cn1nc(C(F)(F)F)cc1S(=O)(=O)N1CC2(CC[C@@H](N3CCOCC3)C2)C1` [Example 49, (R)-4-(2-((1-Methyl-3-(trifluoromethyl)-1H-pyrazol-5-yl)sulfonyl)-2-azaspiro[3.4]octan-6-yl)morpholine] showed an IC50 of 100 to 500 nM. For `Cc1cnc(S(=O)(=O)N2CC3(CCC(N4CCOCC4)C3)C2)c(C)c1` (stereo not drawn) [Example 29, 4-(2-((3,5-Dimethylpyridin-2-yl)sulfonyl)-2-azaspiro[3.4]octan-6-yl)morpholine], the IC50 was 500 to 3000 nM. Compound `Cn1nc(C(F)(F)F)cc1S(=O)(=O)N1CC2(C[C@@H](N3CCOCC3)CO2)C1` [Example 57, (R)-2-((1-methyl-3-(trifluoromethyl)-1H-pyrazol-5-yl)sulfonyl)-7-morpholino-5-oxa-2-azaspiro[3.4]octane] has an IC50 of 500 to 3000 nM. For `COc1ncc(C)cc1S(=O)(=O)N1CC2(CC(NC3CC(F)(F)C3)CO2)C1` (stereo not drawn) [Example 25, N-(3,3-Difluorocyclobutyl)-2-((2-methoxy-5-methylpyridin-3-yl)sulfonyl)-5-oxa-2-azaspiro[3.4]octan-7-amine], the IC50 was 500 to 3000 nM. Work on `COc1ncc(C)cc1S(=O)(=O)N1CC2(CC(NC3CCOCC3)CO2)C1` (stereo not drawn) [Example 21, 2-((2-Methoxy-5-methylpyridin-3-yl)sulfonyl)-N-(tetrahydro-2H-pyran-4-yl)-5-oxa-2-azaspiro[3.4]octan-7-amine] yielded an IC50 of 500 to 3000 nM. In the case of `Cc1cc(S(=O)(=O)N2CC3(CC[C@H](N4CCOCC4)C3)C2)n(C)n1` (single isomer, unassigned) [Example 67], the IC50 is reported as 500 to 3000 nM. For `Cc1nc(C(C)(F)F)ccc1S(=O)(=O)N1CC2(CC(N3CC4(COC4)C3)C2)C1` [Example 1, 6-(2-((6-(1,1-Difluoroethyl)-2-methylpyridin-3-yl)sulfonyl)-2-azaspiro[3.3]heptan-6-yl)-2-oxa-6-azaspiro[3.3]heptane], the IC50 was < 100 nM. `Cn1nc(C(F)(F)F)cc1S(=O)(=O)N1CC2(CC[C@H](N3CCOCC3)C2)C1` [Example 51, (S)-4-(2-((1-methyl-3-(trifluoromethyl)-1H-pyrazol-5-yl)sulfonyl)-2-azaspiro[3.4]octan-6-yl)morpholine] showed an IC50 of 100 to 500 nM. With `N#Cc1ccc(F)c(S(=O)(=O)N2CC3(CC(NC4CCOCC4)CO3)C2)c1` (stereo not drawn) [Example 27, 4-Fluoro-3-((7-((tetrahydro-2H-pyran-4-yl)amino)-5-oxa-2-azaspiro[3.4]octan-2-yl)sulfonyl)benzonitrile] the IC50 was 500 to 3000 nM. `Cc1nc(C(C)(F)F)ccc1S(=O)(=O)N1CC2(CC(N(C)CC3CCOCC3)C2)C1` [Example 75, 2-((6-(1,1-difluoroethyl)-2-methylpyridin-3-yl)sulfonyl)-N-methyl-N-((tetrahydro-2H-pyran-4-yl)methyl)-2-azaspiro[3.3]heptan-6-amine] was tested, and the IC50 was 100 to 500 nM. Compound `COc1ccc(S(=O)(=O)N2CC3(CCC(N4CC5(COC5)C4)C3)C2)c(C)n1` (stereo not drawn) [Example 30, 6-(2-((6-Methoxy-2-methylpyridin-3-yl)sulfonyl)-2-azaspiro[3.4]octan-6-yl)-2-oxa-6-azaspiro[3.3]heptane] has an IC50 of 500 to 3000 nM. For `Cc1cc(C)c(S(=O)(=O)N2CC3(CCC(N4CCOCC4)C3)C2)c(C)c1` (stereo not drawn) [Example 43, 4-(2-(Mesitylsulfonyl)-2-azaspiro[3.4]octan-6-yl)morpholine], the IC50 was < 100 nM. `Cc1cc(C)c(S(=O)(=O)N2CC3(CC(N4CCOCC4)CO3)C2)c(C)c1` (stereo not drawn) [Example 53, 2-(Mesitylsulfonyl)-7-morpholino-5-oxa-2-azaspiro[3.4]octane] gave an IC50 of 100 to 500 nM. For `Cc1nc(C(C)(F)F)ccc1S(=O)(=O)N1CC2(CC(NCC3CCOCC3)C2)C1` [Example 71, 2-((6-(1,1-difluoroethyl)-2-methylpyridin-3-yl)sulfonyl)-N-((tetrahydro-2H-pyran-4-yl)methyl)-2-azaspiro[3.3]heptan-6-amine], the IC50 was < 100 nM. `Cc1cc(C(F)(F)F)ncc1S(=O)(=O)N1CC2(CC[C@H](N3CCOCC3)C2)C1` (single isomer, unassigned) [Example 63] showed an IC50 of 100 to 500 nM. With `COc1ccc(S(=O)(=O)N2CC3(CCC(NC4CCC(F)(F)CC4)C3)C2)c(C)n1` (stereo not drawn) [Example 31, N-(4,4-Difluorocyclohexyl)-2-((6-methoxy-2-methylpyridin-3-yl)sulfonyl)-2-azaspiro[3.4]octan-6-amine] the IC50 was 100 to 500 nM. `Cn1nc(C(F)(F)F)cc1S(=O)(=O)N1CC2(CC(NCC3COC3)C2)C1` [Example 11, 2-((1-Methyl-3-(trifluoromethyl)-1H-pyrazol-5-yl)sulfonyl)-N-(oxetan-3-ylmethyl)-2-azaspiro[3.3]heptan-6-amine] was tested, and the IC50 was 100 to 500 nM. `Cc1nc(C(F)(F)F)ncc1S(=O)(=O)N1CC2(CC(NCC3CCOCC3)C2)C1` [Example 79, 2-((4-methyl-2-(trifluoromethyl)pyrimidin-5-yl)sulfonyl)-N-((tetrahydro-2H-pyran-4-yl)methyl)-2-azaspiro[3.3]heptan-6-amine] was tested, and the IC50 was 100 to 500 nM. In the case of `Cn1nc(C(F)(F)F)cc1S(=O)(=O)N1CC2(CC(NC3COC3)C2)C1` [Example 13, 2-((1-Methyl-3-(trifluoromethyl)-1H-pyrazol-5-yl)sulfonyl)-N-(oxetan-3-yl)-2-azaspiro[3.3]heptan-6-amine], the IC50 is reported as 500 to 3000 nM. For `COCCN(C)C1CCC2(C1)CN(S(=O)(=O)c1ccc(OC)nc1C)C2` (stereo not drawn) [Example 32, 2-((6-Methoxy-2-methylpyridin-3-yl)sulfonyl)-N-(2-methoxyethyl)-N-methyl-2-azaspiro[3.4]octan-6-amine], the IC50 was < 100 nM. In the case of `Cc1nc(C(C)(F)F)ccc1S(=O)(=O)N1CC2(CC(NC3COC3)C2)C1` [Example 69, 2-((6-(1,1-difluoroethyl)-2-methylpyridin-3-yl)sulfonyl)-N-(oxetan-3-yl)-2-azaspiro[3.3]heptan-6-amine], the IC50 is reported as 500 to 3000 nM. For `Cc1nc(C(F)(F)F)ccc1S(=O)(=O)N1CC2(CC(N3CCOCC3)C2)C1` [Example 5, 4-(2-((2-Methyl-6-(trifluoromethyl)pyridin-3-yl)sulfonyl)-2-azaspiro[3.3]heptan-6-yl)morpholine], the IC50 was 100 to 500 nM. `Cc1nc(C(F)(F)F)ncc1S(=O)(=O)N1CC2(CC(N(C)C3COC3)C2)C1` [Example 81, N-methyl-2-((4-methyl-2-(trifluoromethyl)pyrimidin-5-yl)sulfonyl)-N-(oxetan-3-yl)-2-azaspiro[3.3]heptan-6-amine] showed an IC50 of 100 to 500 nM.

Reference: patent publication US20260365663A1, “EMOPAMIL-BINDING PROTEIN INHIBITORS AND USES THEREOF” (BIOGEN MA INC., priority 2022, published 2026)
